The nature of series [1]: Standard testing procedures for determining biodegradability. From the text:
The present invention provides compositions comprising polymeric quaternary ammonium salts and methods of their use as a corrosion inhibitor and/or biocide. The polymeric quaternary ammonium salts described herein are highly biodegradable, thereby making these compositions highly desirable for use in corrosion systems that require careful consideration concerning environmental impact, such as on offshore drilling platforms. […] For purposes of comparison, sodium benzoate was about 85.5% biodegraded after 7 days, about 95% biodegraded after 14 days and 100% biodegraded after 28 days.

The subject of series [2] is planktonic sulfate reducing bacteria (SRB). The experiment in a line: Biocide test API RP 38, sulfate reducing bacteria. Type of series: cell-based. The settings on record: 4 hours contact at 37° C., growth monitored 15 days. How it is done:
(§1) The effectiveness of the polymeric quaternary ammonium salts as a biocide was tested using the method shown in the API Recommended Practice for Biological Analysis of Subsurface Injection Waters, API RP 38, March, 1982, which is hereby fully incorporated by reference. The effectiveness of the salts as a biocide was tested using planktonic sulfate reducing bacteria (SRB), Aerobic Acid Producing Bacteria (AAPB) and Anaerobic Acid Producing (AnAP) Bacteria.
(§2) The desired concentrations of the polymeric quaternary ammonium salt biocide were added to clean sterilized bottles. Two bottles contained no biocides and served as controls. Under a N2 blanket, 10 mL of actively growing bacterial culture (24 hours old) was added to each of the bottles, and a 1 mL sample was taken and serially diluted into six bottles. The solutions were mixed well and the bottles were placed in an incubator at 37° C. for 4 hours. At the end of this period, 1 mL samples from each of the treated bottles were taken and serially diluted into 3 bottles. Samples from the control bottles were serially diluted into six bottles. All bottles were then placed in an incubator at 37° C. and bacterial growth was monitored for 15 days.

Series [3] concerns Aerobic Acid Producing Bacteria (AAPB). The experiment in a line: Biocide test API RP 38, aerobic acid producing bacteria. The series is classed as cell-based. The settings on record: 4 hours contact at 37° C., growth monitored 15 days. How it is done: as §1, §2
Series [4] deals with Anaerobic Acid Producing (AnAP) Bacteria. As to the kind of experiment: Biocide test API RP 38, anaerobic acid producing bacteria. The series is classed as cell-based. The settings on record: 4 hours contact at 37° C., growth monitored 15 days. The method, then: as §1, §2

As to `O=C([O-])c1ccccc1.[Na+]` [sodium benzoate], the biodegraded result in series [1] (after 7 days) is reported as “about 85.5%”; in series [1] (after 14 days) it was “about 95%”; in series [1] (after 28 days) it was 100%.
Regarding `O=CCCCC=O` [Glutaraldehyde], the “Bacterial cells/ml, sulfate reducing bacteria” value in series [2] (dosage 31.3 ppm) is 10^1 cells/ml; in series [2] (dosage 62.5 ppm) it was 0^ cells/ml. Moreover, the “Bacterial cells/ml, Aerobic Acid Producing Bacteria (AAP)” value in series [3] (dosage 100 ppm) is recorded as “≧10^3 cells/ml”; in series [3] (dosage 200 ppm), “≧10^3 cells/ml”; in series [3] (dosage 375 ppm), 10^2 cells/ml; in series [3] (dosage 500 ppm), 10^1 cells/ml. Also, the results for the “Bacterial cells/ml, Anaerobic Acid Producing (AnAP) Bacteria” value in series [4] (dosage 31.3 ppm), in series [4] (dosage 62.5 ppm) and in series [4] (dosage 125 ppm) were 10^2 cells/ml, “≧10^3 cells/ml” and “≧10^3 cells/ml”, respectively.

The values are drawn from US20060062753A1, “Polymeric quaternary ammonium salts useful as corrosion inhibitors and biocides” (priority 2004, published 2006).
